{"source": "paper PMC4470081", "about": "“Characterization of glutathione transferases involved in the pathogenicity of Alternaria brassicicola” (BMC Microbiology, 2015)", "assay_type_in_all_cases": "biochemical, Alternaria brassicicola", "key": {"[1]": {"system": "T1, AbGTT1.2", "T1 construct": "E. coli BL21(DE3) pRARE", "assay": "GSH transferase, absorbance […] nm", "details": "3 mM GSH (table note; methods say 5 mM), phosphate pH 7.5"}, "[2]": {"system": "T2, AbGSTFuA1", "T2 construct": "E. coli BL21(DE3) pRARE", "assay": "GSH transferase, absorbance […] nm", "details": "3 mM GSH (table note; methods say 5 mM), phosphate pH 7.5"}, "[3]": {"system": "T3, AbUre2pB1", "T3 construct": "E. coli BL21(DE3) pRARE", "assay": "GSH transferase, absorbance […] nm", "details": "3 mM GSH (table note; methods say 5 mM), phosphate pH 7.5"}, "[4]": {"system": "T2, AbGSTFuA1", "assay": "GSH transferase, absorbance […] nm", "details": "3 mM GSH (table note; methods say 5 mM), pH 6.5"}, "[5]": {"system": "T1, AbGTT1.2", "assay": "peroxidase, glutathione reductase/NADPH coupled, […] nm", "details": "3 mM GSH (table note; methods say 2 mM), Tris-HCl pH 8.0"}, "[6]": {"system": "T3, AbUre2pB1", "assay": "peroxidase, glutathione reductase/NADPH coupled, […] nm", "details": "3 mM GSH (table note; methods say 2 mM), Tris-HCl pH 8.0"}}, "data": [{"smiles": "O=[N+]([O-])c1ccc(Cl)c([N+](=O)[O-])c1", "note": "[CDNB, 1-chloro-2,4-dinitrobenzene]", "values": [{"measurement": "Km", "setting": "[1]", "result": "1820 ± 330", "unit": "µM"}, {"measurement": "Km", "setting": "[2]", "result": "400 ± 20", "unit": "µM"}, {"measurement": "Km", "setting": "[3]", "result": "5010 ± 400", "unit": "µM"}]}, {"smiles": "S=C=NCc1ccccc1", "note": "[Bz-ITC]", "values": [{"measurement": "Km", "setting": "[4]", "result": "180 ± 30", "unit": "µM"}]}, {"smiles": "CC(C)(OO)c1ccccc1", "note": "[Cu-OOH]", "values": [{"measurement": "Km", "setting": "[5]", "result": "120 ± 40", "unit": "µM"}, {"measurement": "Km", "setting": "[6]", "result": "770 ± 60", "unit": "µM"}]}, {"smiles": "C=CCN=C=S", "note": "[Al-ITC]", "values": [{"measurement": "Km", "setting": "[4]", "result": "120 ± 20", "unit": "µM"}]}, {"smiles": "S=C=NCCc1ccccc1", "note": "[Ph-ITC]", "values": [{"measurement": "Km", "setting": "[4]", "result": "110 ± 20", "unit": "µM"}]}]}
